# Measurements taken from patent publication US20260365855A1, “TARGETED QUINOCYANINE DYES FOR THE INTRAOPERATIVE DELINEATION OF CANCER MARGINS” (THE TRUSTEES OF THE UNIVERSITY OF PENNSYLVANIA, priority 2022, published 2026).
# Entries after “also recorded” stand apart in the source; their conditions may differ.
# Legend:
# Emission spectra = assay type: physicochemical; conditions: for NIR-II fluorescence: absorbance and emission spectra, DMSO
# Experimental: Emission spectra. The emissions for compounds 1, 2 and 3 were obtained using a Horiba QuantaMaster with excitation at 900 nm and emissions recorded in 1 nm steps from 925 to 1300 nm. […]
# Compound 3 has a maximum absorbance at 942 nm and maximum emission at 979 nm. The emission intensities were determined with excitation at 900 nm.
# KLN 205 cells = assay: Cell uptake (NIR-II emission of cell lysates); assay type: cell-based; conditions: 10 μM, 2 h, 37 °C; lysed with 0.5% Triton X-100
# Experimental: KLN 205 cells were seeded into an 8 chamber slide at 15,000 cells/well. Cells were incubated overnight at 37 °C and 5% CO2. Cells were then treated in 500 μL with 10 μM of compound 1, compound 2 or compound 3, or with vehicle (DMSO). The slide was incubated for 2 hours with treatment at 37 °C and 5% CO2.
# Following treatment, the solution was aspirated, and cells were rinsed twice with 500 μL of ice-cold DPBS. Triton X-100 was diluted to be 0.5% Triton, and 500 μL of this solution were added to each chamber for 10 min at 37 °C and 5% CO2 to lyse the cells. 100 μL were removed from each chamber and added to a 96-well black-well clear-bottom plate. The plate was then imaged for NIR-II emission using the PhotonEtc IR Vivo with excitation at 760, 808, 890, or 940 nm.
# Cell uptake of compound 1, compound 2 and compound 3 was evaluated by incubating KLN 205 cells in 10 μM of compound 1, compound 2 and compound 3, or with DMSO for 2 hrs. Following incubation, cells were rinsed twice with ice-cold DPBS before lysing by treatment with Triton. The lysates were then transferred to a 96-well black-well clear-bottom plate and imaged for NIR-II fluorescence in the IR Vivo, as shown in FIG. 4.
# Absorbance spectra = assay type: physicochemical; conditions: 5 μM in DMSO
# Experimental: Absorbance spectra. The absorbances for compound 1 and compound 2 were obtained using a PerkinElmer Lambda 5 measuring absorbances in 1 nm steps from 500 to 1100 nm. The absorbance spectrum for compound 3 was obtained using a JASCO VI 70 measuring in 1 nm steps from 850 to 1150 nm. All compounds were dissolved in DMSO at a concentration of 5 μM.
# Synthesis of compound 1, compound 2 and compound 3 was verified by MALDI-TOF mass spectrometry with further confirmation by ^1H-NMR.
# [1] = NIR-II range; cited from earlier work
# [2] = NIR-II fluorescence of compound 1 vs. JAS239 and ICG (plate imaging, IR Vivo); assay type: physicochemical; conditions: for NIR-II emissions; excitation requirement: discussion of NIR-I fluorophores, require excitation with a NIR-I laser; for NIR-II emission: emission 1,000-1,250 nm, DMSO, no tissue
# Experimental: NIR-II Fluorescence of Compound 1 vs. JAS239 and ICG.
# Compound 1, JAS239, and ICG were dissolved in DMSO and added to a 96-well black-well clear-bottom plate at concentrations from 1 μM to 100 μM. The plate was then imaged using the PhotonEtc IR Vivo using the NIR-II emission filter (1000-1250 nm) with excitation at 760 nm, 808 nm, 890 nm, or 940 nm.
# Dyes were excited with excitation lasers at 760, 808, 890, and 940 nm and emissions were measured between 1,000 and 1,250 nm.
# [3] = Depth penetration comparisons of compound 1 vs. JAS239 and ICG through chicken breast tissue
# Experimental: Depth Penetration Comparisons of Compound 1 vs. JAS239 and ICG.
# Compound 1, JAS239, and ICG were diluted in DMSO and placed in a 96-well black-well clear-bottom plate at concentrations from 0.1 μM to 100 μM. The plate was then imaged using the PhotonEtc IR Vivo using the NIR-II emission filter with excitation at 760, 808, 890, or 940 nm. Wells were then covered with thinly sliced raw chicken breast tissue from 1 mm to 3 mm thick. Imaging was then repeated for each tissue thickness.
# Chicken breast tissue was layered over wells containing varying concentrations of each fluorophore in 1 mm sections. Fluorescence in the NIR-II window was measured following excitation at 760, 808, 890, and 940 nm. […] Tissue scattering, absorption, and autofluorescence decreases at increasing wavelengths of light. Thus, the improved resolution of compound 1 with increasing wavelength of excitation laser likely resulted from improved tissue penetration of the excitation laser. Compound 1 has a maximum absorption at 970 nm resulting in strong excitation of the probe and fluorescence conversion.
# Athymic Nu/Nu mice = assay: In vivo imaging after tail vein injection; conditions: 40 nmol via tail vein
# Experimental: Athymic Nu/Nu mice were injected with 40 nmol compound 1 through the tail vein in Normal Saline and filtered through a 0.22 μm filter.
# [4] = 5 μM in DMSO, excitation at 900 nm
# [5] = excitation lasers 760 and 808 nm
# [6] = excitation lasers 890 and 940 nm
Compound,maximum emission (Emission spectra; [4]) [nm],NIR-II fluorescence (Emission spectra),maximum absorbance (Absorbance spectra) [nm],"NIR-II emission [2, 5]","NIR-II emission [2, 6]",distribution in ventral image (Athymic Nu/Nu mice; 5 mins after injection),distribution in ventral image (Athymic Nu/Nu mice; 2 hours after injection),"NIR-II emission compared to ICG ([2]; IR Vivo, excited near its absorbance maximum)","emission maxima, shift compared to compound 3 (Emission spectra; [4])",NIR-II fluorescence of cell lysates (cell uptake) (KLN 205 cells),"absorbance maxima, shift compared to compound 3 (Absorbance spectra)",NIR-II fluorescence (background statement) [1],NIR-II emissions; excitation requirement [2],"NIR-II emission intensity, no tissue present [3]","emission intensity (comparison of compounds 1, 2 and 3) (Emission spectra; [4])"
"CC1(C)C(/C=C/C=C/C=C/C=C2\N(CCCCS(=O)(=O)O)c3ccc4ccccc4c3C2(C)C)=[N+](CCCCS(=O)(=O)[O-])c2ccc3ccccc3c21 [ICG, indocyanine green]",–,–,–,strongest NIR-II emissions,disappeared,–,–,–,–,–,–,measurable fluorescence at even longer wavelengths of light in the near-infrared II (NIR-II) range,measurable emissions in the NIR-II window,most intense emissions in the NIR-II window,–
CC1(C)C(=C/C=C/C=C/C=C/C2=[N+](CCO)c3ccccc3C2(C)C)N(CCO)c2ccccc21 [JAS239],–,–,–,strongest NIR-II emissions,disappeared,–,–,–,–,–,–,–,measurable emissions in the NIR-II window,–,–
"CCN1C=C/C(=C/C=C2\CCCC(/C=C/c3cc[n+](CC)c4ccccc34)=C2Cl)c2ccccc21.[I-] [compound 1, 4-((E)-2((E)-2-chloro-3-(2-((Z)-J-ethylquinolin-4(JH)-ylidene)-ethylidene)cyclohex-1-en-1-yl)vinyl)-J-ethylquinolin-1-ium iodide]",1010,measurable NIR-II fluorescence,970,–,strong NIR-II signal; also recorded: only compound 1 had measurable fluorescence in the NIR-II window,in the liver,"in the throat, liver and intestines",comparable NIR-II emissions to ICG,further shifted into the NIR-II window compared to compound 3,measurable emissions; also recorded: measurable fluorescence in the NIR-II window,further shifted into the NIR-II window compared to compound 3,–,–,–,most intense emission; also recorded: highest fluorescence with an emission maximum in the NIR-II window

# The next lines start with results.
maximum emission (Emission spectra; [4]) [nm],NIR-II fluorescence (Emission spectra),maximum absorbance (Absorbance spectra) [nm],"NIR-II emission [2, 5]","NIR-II emission [2, 6]",distribution in ventral image (Athymic Nu/Nu mice; 5 mins after injection),distribution in ventral image (Athymic Nu/Nu mice; 2 hours after injection),"NIR-II emission compared to ICG ([2]; IR Vivo, excited near its absorbance maximum)",Compound,"emission maxima, shift compared to compound 3 (Emission spectra; [4])",NIR-II fluorescence of cell lysates (cell uptake) (KLN 205 cells),"absorbance maxima, shift compared to compound 3 (Absorbance spectra)",NIR-II fluorescence (background statement) [1],NIR-II emissions; excitation requirement [2],"NIR-II emission intensity, no tissue present [3]","emission intensity (comparison of compounds 1, 2 and 3) (Emission spectra; [4])"
1007,measurable NIR-II fluorescence,970,–,–,–,–,–,4-((E)-2((E)-2-chloro-3-(2-((Z)-1-hydroxyethylquinolin-4(JH)-ylidene)-ethylidene)cyclohex-1-en-1-yl)vinyl)-1-hydroxyethylquinolin-1-ium chloride [compound 2],further shifted into the NIR-II window compared to compound 3,measurable emissions; also recorded: measurable fluorescence in the NIR-II window,further shifted into the NIR-II window compared to compound 3,–,–,–,–
979,measurable NIR-II fluorescence,942,–,–,–,–,–,"OCCN1C=C/C(=C/C=C/C=C/C=C/c2cc[n+](CCO)c3ccccc23)c2ccccc21.[Cl-] [compound 3, l-(2-hydroxyethyl)-4-((JE,3E,5E)-7-((Z)-J-(2-hydroxyethyl)-quinoline-4(JH)-ylidene)hepta-1,3,5-trien-1-yl)quinoline-1-ium chloride]",–,no fluorescence was observed,–,–,–,–,–
